According to patent publication US5376679A, “Bicyclic or tricyclic biocidal compounds” (Shell Internationale Research Maatschappij B.V., priority 1988, dated 1994):
In brackets after ≈: the same amount, converted by molar mass.

Assays:
[1] = test system: Staphylococcus aureus; assay: Minimum inhibitory concentration, Staphylococcus aureus (Sa); assay type: cell-based, Staphylococcus aureus (NCIB 6571); settings: 30° C., 24 and 72 hours
Procedure: (§1) In respect of S. aureus, B. subtilis and E. coli, the microorganisms were cultured in 50 ml aliquots of a tryptone soya broth in 250 ml conical flasks at 30° C. on a rotary shaker at 200 rpm for 24 hours. Tryptone soya broth was prepared by adding 17 g pancreatic digest of casein, 3 g […] digest of soyabean meal, 5 g of sodium chloride, 2.5 g of dipotassium hydrogen phosphate and 2.5 g of dextrose to 1 liter of distilled water, mixing and sterilising by autoclaving at 121° C. for 15 minutes. 1 ml aliquots of the resulting cultures were mixed with 99 ml of fresh tryptone soya broth and used as inocula for tests. […] Test procedures were as follows: (ii) Dilution Series for Other Test Bacteria, Yeast and Filamentous Fungi Dilution series from the stock solution of each compound were prepared in sterile distilled water. These contained 50, 100, 500 and 1000 ppm compound. To duplicate wells of a compartmentalised square petri dish 0.3 ml of each test compound concentration was added together with 2.7 ml of one of the microbial inocula described above. […] After incubation, in the dark, at 30° C. the wells were examined for the presence or absence of growth. Bacterial and yeast cultures were examined after 24 hours and 72 hours incubation and the fungi cultures after 3, 7 and 10 days. By means of the above tests minimum inhibitory concentrations were determined for the various test compounds.

[2] = test system: Pseudocercosporella herpotrichoides; assay: In vitro activity against wheat eyespot (Ph); assay type: cell-based; parameters: Ph: activity against wheat eyespot: scale not given here; settings: in vitro, 100 ppm in agar, 11 days; activity grade 1 or 2, not defined
Summary of the method: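 Compound was dispersed from acetone into half-strength potato dextrose agar at 100 ppm final. Two 5 mm mycelial plugs were placed on each plate, which was incubated 11 days at 20–22 °C in darkness. Diametric growth minus plug width was compared with acetone-only agar.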

[3] = test system: Escherichia coli; assay: Minimum inhibitory concentration, Escherichia coli (Ec); assay type: cell-based, Escherichia coli (NCIB 9517); settings: 30° C., 24 and 72 hours
Procedure: as §1

[4] = test system: Desulfovibrio sp.; assay: Minimum inhibitory concentration, sulphate-reducing bacteria (Dsp); assay type: cell-based; settings: 30° C., 2, 5 and 10 days
Procedure: The sulphate reducing bacteria Desulfovibrio sp. were cultured in a modified Postgate's Medium B for 48 hours at 30° C. and used directly as an inoculum. The modified Postgate's Medium B consisted of 0.5 g dipotassium hydrogen phosphate, 1 g ammonium chloride, 1 g sodium sulphate, 5 g sodium lactate, 1 g yeast extract, 0.1 ml thioglycolic acid, 0.1 ml ascorbic acid, 0.5 g ferrous sulphate heptahydrate, 750 ml aged seawater and 250 ml distilled water, pH adjusted to 7.8, divided into aliquots and sterilised by autoclaving at 121° C. for 15 minutes. […] Test procedures were as follows: (i) Suphate-reducing Bacteria Test Dilution Series Duplicate aliquots (9.9 ml) of dilution series from the stock solutions of each compound were prepared in a modified Postgate's Medium B described above. These contained 100 ppm compound. These were then inoculated with 0.1 ml of inoculum. After incubation at 30° C., the presence or absence of growth--as indicated by a blackening of the medium due to ferrous sulphide production--was recorded at 2, 5 and 10 days. […] By means of the above tests minimum inhibitory concentrations were determined for the various test compounds.

[5] = test system: Cladosporium resinae; assay: Minimum inhibitory concentration, Cladosporium resinae (Cr); assay type: cell-based; settings: Amorphotheca resinae, 30° C., 3, 7 and 10 days
Procedure: (§2) Inocula of the fungi Aspergillus niger, Cladosporium resinae and Chaetomium globosum were prepared containing 5×10^5 conidia/ml in a potato dextrose broth. The potato dextrose broth was prepared by suspending 4 g potato extract and 20 g dextrose in 1 liter of distilled water, warming to achieve solution, separating into aliquots and sterilising by autoclaving at 121° C. for 15 minutes.
(§3) Test procedures were as follows:
(§4) (ii) Dilution Series for Other Test Bacteria, Yeast and Filamentous Fungi
(§5) Dilution series from the stock solution of each compound were prepared in sterile distilled water. These contained 50, 100, 500 and 1000 ppm compound. To duplicate wells of a compartmentalised square petri dish 0.3 ml of each test compound concentration was added together with 2.7 ml of one of the microbial inocula described above. This gave final concentrations of the test compound of 5, 10, 50 and 100 ppm.
(§6) After incubation, in the dark, at 30° C. the wells were examined for the presence or absence of growth. Bacterial and yeast cultures were examined after 24 hours and 72 hours incubation and the fungi cultures after 3, 7 and 10 days.
(§7) By means of the above tests minimum inhibitory concentrations were determined for the various test compounds.

[6] = test system: Aspergillus niger; assay: Minimum inhibitory concentration, Aspergillus niger (An); assay type: cell-based, Aspergillus niger (CMI 17454); settings: 30° C., 3, 7 and 10 days
Procedure: as §2, §3, §4, §5, §6, §7

[7] = test system: Bacillus subtilis; assay: Minimum inhibitory concentration, Bacillus subtilis (Bs); assay type: cell-based; settings: 30° C., 24 and 72 hours
Procedure: as §1

[8] = test system: Saccharomyces cerevisiae; assay: Minimum inhibitory concentration, yeast (Sc); assay type: cell-based, Saccharomyces cerevisiae (ATCC 9763); settings: 30° C., 24 and 72 hours
Procedure: Inocula of S. cerevisiae were prepared as for S. aureus, B. subtilis and E. coli, but using yeast malt broth in place of the typtone soya broth. The yeast malt broth was prepared by suspending 3 g yeast extract, 3 g malt extract, 5 g peptone and 10 g dextrose in 1 liter of distilled water, warming to achieve solution and sterilising by autoclaving at 121° C. for 15 minutes.
as §3, §4, §5, §6, §7

[9] = test system: Fusarium culmorum; assay: Activity against seedling wheat blight, soil drench (Fs); assay type: in vivo; parameters: scale not given here; settings: 10 kg/ha, 21 days, activity grade 1 or 2, not defined
Summary of the method: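 Wheat seeds (var Waggoner) soaked 6 h at 22° C in 7×10^5 spores/ml, sown in sand; 1 day later soil drench at 10 kg/ha (0.36 g/l in 12% v/v acetone/water). Glasshouse at 25° C; at 21 days, stem-base and upper-root lesions scored visually against control seedlings.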

[10] = test system: Chaetomium globosum; assay: Minimum inhibitory concentration, Chaetomium globosum (Chg); assay type: cell-based
Procedure: as §2, §3, §4, §5, §6, §7

Row | SMILES | MIC [1] | Ph: activity against wheat eyespot [2] | MIC [3] | MIC [4] | MIC [5] | MIC [6] | MIC [7] | MIC [8] | Fs: activity against seedling wheat blight [9] | MIC ([10]; 30° C., 3, 7 and 10 days) | MIC ([10]; *only tested at 100 ppm)
1 | N#CN=[N+]([O-])c1ccc2oc(=O)ccc2c1 [Example 1] | > 100 µg/mL | 2 | > 100 µg/mL | 25 µg/mL (≈ 116 µM) | 25 to 50 µg/mL (≈ 116 to 232 µM) | 25 µg/mL (≈ 116 µM) | 50 µg/mL (≈ 232 µM) | 5 to 25 µg/mL (≈ 23.2 to 116 µM) | 2 | 10 µg/mL (≈ 46.5 µM) | –
2 | CC1Cc2cc(Cl)cc([N+]([O-])=NC#N)c2O1 (stereo not drawn) [Example 6] | 100 µg/mL (≈ 421 µM) | 2 | > 100 µg/mL | 100 µg/mL (≈ 421 µM) | 25 µg/mL (≈ 105 µM) | 25 µg/mL (≈ 105 µM) | 100 µg/mL (≈ 421 µM) | 25 µg/mL (≈ 105 µM) | 2 | 25 µg/mL (≈ 105 µM) | –
3 | N#CN=[N+]([O-])c1cc(Cl)cc2c1OCC=C2 [Example 26] | 100 µg/mL (≈ 424 µM) | 1 | > 100 µg/mL | 100 µg/mL (≈ 424 µM) | 25 to 100 µg/mL (≈ 106 to 424 µM) | 25 to 50 µg/mL (≈ 106 to 212 µM) | 50 µg/mL (≈ 212 µM) | > 100 µg/mL | 2 | 50 µg/mL (≈ 212 µM) | –
4 | Cc1oc2c([N+]([O-])=NC#N)cccc2c1C [Example 18] | 5 µg/mL (≈ 23.2 µM) | 1 | > 100 µg/mL | > 100 µg/mL | 100 µg/mL (≈ 465 µM) | 100 µg/mL (≈ 465 µM) | > 100 µg/mL | 100 µg/mL (≈ 465 µM) | 2 | 100 µg/mL (≈ 465 µM) | –
5 | N#CN=[N+]([O-])c1cc(Cl)cc2c1OC(CO)C2 (stereo not drawn) [Example 11] | 100 µg/mL (≈ 394 µM) | 2 | 100 µg/mL (≈ 394 µM) | 100 µg/mL (≈ 394 µM) | 50 µg/mL (≈ 197 µM) | 25 µg/mL (≈ 98.6 µM) | 25 µg/mL (≈ 98.6 µM) | 100 µg/mL (≈ 394 µM) | 2 | 25 µg/mL (≈ 98.6 µM) | –
6 | CC1(C)C=Cc2cc(F)cc([N+]([O-])=NC#N)c2O1 [Example 29] | > 100 µg/mL | 2 | > 100 µg/mL | > 100 µg/mL | 50 to 100 µg/mL (≈ 202 to 404 µM) | 25 to 100 µg/mL (≈ 101 to 404 µM) | 100 µg/mL (≈ 404 µM) | 50 µg/mL (≈ 202 µM) | 2 | 5 to 100 µg/mL (≈ 20.2 to 404 µM) | –
7 | N#CN=[N+]([O-])c1cc(Cl)cc2c1OC(CCl)C2 (stereo not drawn) [Example 10] | > 100 µg/mL | 2 | > 100 µg/mL | 100 µg/mL (≈ 368 µM) | 25 µg/mL (≈ 91.9 µM) | 25 µg/mL (≈ 91.9 µM) | > 100 µg/mL | > 100 µg/mL | 2 | – | < 100 µg/mL
8 | CC1Oc2c(cc(Cl)cc2[N+]([O-])=NC#N)C1C (stereo not drawn) [Example 5] | > 100 µg/mL | 2 | > 100 µg/mL | > 100 µg/mL | 25 µg/mL (≈ 99.3 µM) | 10 µg/mL (≈ 39.7 µM) | 100 µg/mL (≈ 397 µM) | 50 µg/mL (≈ 199 µM) | 2 | 5 to 25 µg/mL (≈ 19.9 to 99.3 µM) | –
9 | CC1Oc2c(cccc2[N+]([O-])=NC#N)C1C (stereo not drawn) [Example 9] | > 100 µg/mL | 2 | > 100 µg/mL | 100 µg/mL (≈ 460 µM) | 25 µg/mL (≈ 115 µM) | 25 µg/mL (≈ 115 µM) | 50 µg/mL (≈ 230 µM) | 50 µg/mL (≈ 230 µM) | 2 | 50 µg/mL (≈ 230 µM) | –
10 | CC1(C)Cc2cc(Cl)cc([N+]([O-])=NC#N)c2O1 [Example 4] | 100 µg/mL (≈ 397 µM) | 2 | > 100 µg/mL | > 100 µg/mL | 25 µg/mL (≈ 99.3 µM) | 100 µg/mL (≈ 397 µM) | 50 µg/mL (≈ 199 µM) | > 100 µg/mL | 2 | > 100 µg/mL | –
11 | Cc1cc2cc([N+]([O-])=NC#N)ccc2o1 [Example 23] | > 100 µg/mL | 1 | > 100 µg/mL | 100 µg/mL (≈ 497 µM) | 25 µg/mL (≈ 124 µM) | 25 µg/mL (≈ 124 µM) | 50 µg/mL (≈ 249 µM) | 25 µg/mL (≈ 124 µM) | 2 | – | < 100 µg/mL
12 | N#CN=[N+]([O-])c1cccc2c3c(oc12)CCCC3 [Example 17] | 100 µg/mL (≈ 415 µM) | 1 | > 100 µg/mL | > 100 µg/mL | 25 µg/mL (≈ 104 µM) | < 5 µg/mL | > 100 µg/mL | 50 µg/mL (≈ 207 µM) | 2 | < 100 µg/mL | –
13 | Cc1cc2cccc([N+]([O-])=NC#N)c2o1 [Example 16] | > 100 µg/mL | 1 | > 100 µg/mL | 50 to 100 µg/mL (≈ 249 to 497 µM) | > 100 µg/mL | 50 µg/mL (≈ 249 µM) | > 100 µg/mL | 100 µg/mL (≈ 497 µM) | 1 | – | –
